# Patent publication US20190309272A1, “Genetically Modified Cell Lines Including a TP53 Modification and Methods of Use” (UNIVERSITY OF SOUTH CAROLINA, priority 2018, published 2019)
# Tests used:
# Type in all cases: cell-based, Human
# MCF7 TP53 KO 56 A7 = experiment: Drug treatment of single cell clone KO 56 A7; settings: ten day drug treatment; further: unit not given here
# MCF7 PR WT A8 = experiment: Drug treatment of single cell clone PR WT A8; settings: ten day drug treatment; further: unit not given here
# MCF7 PR WT B8 = experiment: Drug treatment of single cell clone PR WT B8; settings: ten day drug treatment; further: unit not given here
# MCF7 TP53 KO 56 E3 = experiment: Drug treatment of single cell clone KO 56 E3; settings: ten day drug treatment
# MCF7 WT Parental pool = experiment: Drug screening, resazurin, MCF7 wild type parental pool; settings: for area under the curve (AUC): PR WT Pool, ten day drug treatment (Table 3); for MCF7 WT Parental pool (AUC): ten-day drug treatment, 156.25 nM to 10 μM, resazurin fluorescence
# MCF7 PR WT G2 = experiment: Drug treatment of single cell clone PR WT G2; settings: ten day drug treatment; further: unit not given here
# MCF7 TP53 KO 3.4 pool = experiment: Drug screening, resazurin, TP53 KO 3.4 pool; settings: for area under the curve (AUC): KO 34 Pool, ten day drug treatment (Table 3); for TP53 KO 3.4 pool (AUC): ten-day drug treatment, 156.25 nM to 10 μM, resazurin fluorescence
# MCF7 TP53 KO 34 D4 = experiment: Drug treatment of single cell clone KO 34 D4; settings: ten day drug treatment; further: unit not given here
# MCF7 TP53 KO 34 E1 = experiment: Drug treatment of single cell clone KO 34 E1; settings: ten day drug treatment
# MCF7 TP53 KO 34 B5 = experiment: Drug treatment of single cell clone KO 34 B5; settings: ten day drug treatment; further: unit not given here
# MCF7 TP53 KO 56 C5 = experiment: Drug treatment of single cell clone KO 56 C5; settings: ten day drug treatment
# MCF7 TP53 KO 56 A5 = experiment: Drug treatment of single cell clone KO 56 A5; settings: ten day drug treatment
# MCF7 TP53 KO 56 E1 = experiment: Drug treatment of single cell clone KO 56 E1; settings: ten day drug treatment; further: unit not given here
# MCF7 TP53 KO 56 A8 = experiment: Drug treatment of single cell clone KO 56 A8; settings: ten day drug treatment
# MCF7 TP53 KO 56 A4 = experiment: Drug treatment of single cell clone KO 56 A4; settings: ten day drug treatment
# MCF7 TP53 KO 56 A6 = experiment: Drug treatment of single cell clone KO 56 A6; settings: ten day drug treatment
# MCF7 TP53 KO 5.6 pool = experiment: Drug screening, resazurin, TP53 KO 5.6 pool; settings: for area under the curve (AUC): KO 56 Pool, ten day drug treatment (Table 3); for TP53 KO 5.6 pool (AUC): ten-day drug treatment, 156.25 nM to 10 μM, resazurin fluorescence
# MCF7 PR WT C7 = experiment: Drug treatment of single cell clone PR WT C7; settings: ten day drug treatment; further: unit not given here
SMILES,area under the curve (AUC) (MCF7 TP53 KO 56 A7),area under the curve (AUC) (MCF7 PR WT A8),area under the curve (AUC) (MCF7 PR WT B8),area under the curve (AUC) (MCF7 TP53 KO 56 E3),area under the curve (AUC) (MCF7 WT Parental pool),MCF7 WT Parental pool (AUC) (MCF7 WT Parental pool),area under the curve (AUC) (MCF7 PR WT G2),area under the curve (AUC) (MCF7 TP53 KO 3.4 pool),TP53 KO 3.4 pool (AUC) (MCF7 TP53 KO 3.4 pool),area under the curve (AUC) (MCF7 TP53 KO 34 D4),area under the curve (AUC) (MCF7 TP53 KO 34 E1),area under the curve (AUC) (MCF7 TP53 KO 34 B5),area under the curve (AUC) (MCF7 TP53 KO 56 C5),area under the curve (AUC) (MCF7 TP53 KO 56 A5),area under the curve (AUC) (MCF7 TP53 KO 56 E1),area under the curve (AUC) (MCF7 TP53 KO 56 A8),area under the curve (AUC) (MCF7 TP53 KO 56 A4),area under the curve (AUC) (MCF7 TP53 KO 56 A6),area under the curve (AUC) (MCF7 TP53 KO 5.6 pool),TP53 KO 5.6 pool (AUC) (MCF7 TP53 KO 5.6 pool),further results
O=C1[O][Pt]2([NH][C@@H]3CCCC[C@H]3[NH]2)[O]C1=O [Oxaliplatin],1.23,0.7779,0.7911,0.9635,0.9557,2.372,0.8186,1.25,5.272,1.392,1.46,0.973,1.239,1.197,1.208,1.229,1.29,1.243,1.164,5.118,area under the curve (AUC) (MCF7 PR WT C7): 0.8311
CC(=O)c1c(C)c2cnc(Nc3ccc(N4CCNCC4)cn3)nc2n(C2CCCC2)c1=O [Palbociclib],1.753,2.127,1.917,1.469,2.446,3.461,2.542,1.88,2.923,1.826,2.274,1.522,1.632,1.647,1.497,2.031,1.846,1.681,1.457,3.234,area under the curve (AUC) (MCF7 PR WT C7): 2.543
